Data: patent US20250326748A1, “COMPOUNDS AND METHODS FOR MODULATING SPLICING” (REMIX THERAPEUTICS INC., priority 2022, published 2025)
pIC50: −log10 of the molar value. Like-named read-outs stand apart in the source and are kept apart here.

Experiments:
[1] = tested on: HTT mRNA; experiment: Splicing RT-qPCR assay, HTT canonical (CJ) and alternative (AJ) junction mRNA; format: cell-based, human; details: Homo sapiens; for pIC50: canonical junction mRNA; for AC50: alternative junction mRNA, read-out: HTT AJ (AC50, increase in AJ mRNA)
Protocol: (§1) Compounds described herein were used to modulate RNA transcript abundance in cells. The expression of a target mRNA was measured by detecting the formation of an exon-exon junction in the canonical transcript (CJ). A compound mediated exon-inclusion event was detected by observing an increase in formation of a new junction with an alternative exon (AJ). Real-time qPCR assays were used to detect these splicing switches and interrogate the potency of various compounds towards different target genes. A high-throughput real time quantitative PCR (RT-qPCR) assay was developed to measure these two isoforms of the mRNA (CJ and AJ) for exemplary genes, such as HTT, SMN2, and MYB, together with a control housekeeping gene, GAPDH or GUSB or PPIA, used for normalization. Briefly, the A673 or K562 cell line was treated with various compounds described herein (e.g., compounds of Formula (D). After treatment, the levels of the HTT, MYB, or SMN2 mRNA targets were determined from each sample of cell lysate by cDNA synthesis followed by qPCR.
(§2) • Cells-to-CT 1-step kit: ThermoFisher A25602, Cells-to-CT lysis reagent: ThermoFisher 4391851C, TaqMan™ Fast Virus 1-Step Master Mix: ThermoFisher 4444436 • GAPDH: VIC-PL, ThermoFisher 4326317E (Assay: Hs99999905_m1)—used for K562/suspension cell lines • GUSB: VIC-PL, ThermoFisher 4326320E (Assay: Hs99999908_m1)—used for K562/suspension cell lines • PPIA: VIC-PL, ThermoFisher 4326316E (Assay: Hs99999904_m1)—used for A673/adherent cell lines
(§3) The A673 cell line was cultured in DMEM with 10% FBS. Cells were diluted with full growth media and plated in a 96-well plate (15,000 cells in 100 ul media per well). The plate was incubated at 37° C. with 5% CO2 for 24 hours to allow cells to adhere. An 11-point 3-fold serial dilution of the compounds was made in DMSO then diluted in media in an intermediate plate. Compounds were transferred from the intermediate plate to the cell plate with the top dose at a final concentration of 10 uM in the well. Final DMSO concentration was kept at or below 0.25%. The cell plate was returned to the incubator at 37° C. with 5% CO2 for an additional 24 hours.
(§4) The K562 cell line was cultured in IMDM with 10% FBS. For K562, cells were diluted with full growth media and plated in either a 96-well plate (50,000 cells in 50 uL media per well) or a 384-well plate (8,000-40,000 cells in 45 uL media per well). An 11-point 3-fold serial dilution of the compounds were made in DMSO then diluted in media in an intermediate plate. Compound was transferred from the intermediate plate to the cell plate with the top dose at a final concentration of 10 uM in the well. Final DMSO concentration was kept at or below 0.25%. Final volume was 100 uL for 96-well plate and 50 uL for 384-well plate. The cell plate was then placed in an incubator at 37° C. with 5% CO2 for 24 hours.
(§5) The cells were then gently washed with 50 uL-100 uL cold PBS before proceeding to addition of lysis buffer. 30 uL-50 μL of room temperature lysis buffer with DNAse I (and optionally RNAsin) was added to each well. Cells were shaken/mixed thoroughly at room temperature for 5-10 minutes for lysis to take place and then 3 uL-5 μL of room temperature stop solution was added and wells were shaken/mixed again. After 2-5 minutes, the cell lysate plate was transferred to ice for RT-qPCR reaction setup. The lysates could also be frozen at −80° C. for later use.
(§6) In some cases, a direct lysis buffer was used. An appropriate volume of 3× lysis buffer (10 mM Tris, 150 mM NaCl, 1.5%-2.5% Igepal and 0.1-1 U/uL RNAsin, pH 7.4) was directly added to either K562 or A673 cells in media and mixed by pipetting 3 times. The plates were then incubated at room temperature with shaking/rocking for 20-50 minutes to allow for lysis to take place. After this time, the cell lysate plate was transferred to ice to set up for the RT-qPCR reactions. The lysates could also be frozen at −80° C. for later use. […]

[2] = tested on: MYB mRNA; experiment: Splicing RT-qPCR assay, MYB canonical (CJ) and alternative (AJ) junction mRNA; format: cell-based, human; details: Homo sapiens; for pIC50: canonical junction mRNA; for AC50: alternative junction mRNA, read-out: MYB AJ (AC50, increase in AJ mRNA)
Protocol: as §1, §2, §3, §4, §5, §6

[3] = tested on: SMN2 mRNA; experiment: Splicing RT-qPCR panel, SMN2 canonical junction (CJ) mRNA; format: cell-based, human; details: Homo sapiens, read-out: SMN2 CJ (decrease in CJ mRNA levels, IC50)
Protocol: as §1, §3, §4, §5
(§7) In some cases, a direct lysis buffer was used. An appropriate volume of 3× lysis buffer (10 mM Tris, 150 mM NaCl, 1.5%-2.5% Igepal and 0.1-1 U/uL RNAsin, pH 7.4) was directly added to either K562 or A673 cells in media and mixed by pipetting 3 times. The plates were then incubated at room temperature with shaking/rocking for 20-50 minutes to allow for lysis to take place. After this time, the cell lysate plate was transferred to ice to set up for the RT-qPCR reactions. The lysates could also be frozen at −80° C. for later use.
(§8) To set up 10 uL RT-qPCR reactions, cell lysates were transferred to 384-well qPCR plates containing the master mix according to the table below. The plates were sealed, gently vortexed, and spun down before the run. The volumes were adjusted accordingly in some instances where the reaction was carried in 20 μL. The table below summarizes the components of the RT-qPCR reactions:
(§9) The RT-qPCR reaction was performed using a QuantStudio (ThermoFisher) under the following fast cycling conditions. […]

[4] = tested on: Target C mRNA; experiment: Splicing RT-qPCR panel, Target C canonical junction (CJ) mRNA; format: cell-based, human; details: Homo sapiens, read-out: Target C CJ (decrease in CJ mRNA levels, IC50)
Protocol: as §1, §3, §4, §5, §7, §8, §9

[5] = tested on: K562 cells; experiment: Cell viability, Cell Titer Glo 2.0 assay, K562; details: 72 hours
Protocol: Compounds described herein were screened for toxicity in K562 (human chronic myelogenous leukemia) and SH-SY5Y (human neuroblastoma) cells using a Cell Titer Glo 2.0 assay.
• Promega CellTiter-Glo® 2.0 Cell Viability Assay (cat #G9241) • Corning 384-well TC-treated microplates (cat #3570)
Cells were plated at 500 cells/well (K562 cells) in 45 μL of IMDM supplemented with 10% FBS in a 384-well opaque plate. Wells containing only medium were used as a blank control. Test compounds (e.g., compounds of Formula (I) or (II)) were first serially diluted in DMSO then diluted 1:100 with IMDM+10% FBS. The final concentration of DMSO was 0.1% in each well. The cells were incubated for 72 hours at 37° C. and 5% CO2 before assaying with Cell Titer Glo 2.0 reagent.

[6] = 24 h, RT-qPCR, A673 or K562 cells, 24 hours treatment, read-out: HTT CJ (IC50, decrease in CJ mRNA)
[7] = qPCR panel, read-out: HTT CJ (decrease in CJ mRNA levels, IC50)
[8] = RT-qPCR, A673 or K562 cells, 24 hours treatment
[9] = qPCR panel, read-out: MYB CJ (decrease in CJ mRNA levels, IC50)
[10] = RT-qPCR, A673 or K562 cells, 24 hours treatment, read-out: MYB CJ (IC50, decrease in CJ mRNA)

Compound | pIC50 [1, 6] | pIC50 [1, 7] | AC50 [1, 8] [µM] | pIC50 [2, 9] | AC50 [2, 8] [nM] | pIC50 [2, 10] | pIC50 [3] | pIC50 [4] | Effect on Cell Viability, K562 [5] | pIC50 ([1]; RT-qPCR, A673 or K562 cells, 24 hours treatment, read-out: HTT CJ (IC50, decrease in CJ mRNA))
CN1CCC[C@H]2CN(c3cnc4nc(-c5cc6cn(C)nc6cc5O)cc(Cl)c4c3)C[C@H]21 [Compound 372, 5-{6-[(4aS,7aS)-1-methyl-hexahydro-2H-pyrrolo[3,4-b]pyridin-6-yl]-4-chloro-1,8-naphthyridin-2-yl}-2-methylindazol-6-ol] | < 5.00 | < 5.00 | > 10 | 6.00 to 7.00 | 100 to 1000 | 6.00 to 7.00 | > 7.00 | < 5.00 | B (100-1000 nM) | –
C[C@H]1CN(c2cnc3nc(-c4cc5cn(C)nc5cc4O)cc(Cl)c3c2)CC2(CC2)N1 [Compound 379] | 5.00 to 6.00 | 5.00 to 6.00 | 1 to 10 | 6.00 to 7.00 | 100 to 1000 | 6.00 to 7.00 | > 7.00 | < 5.00 | B (100-1000 nM) | –
Cc1c(O)c(-c2ccc3c(Cl)c(N4C[C@@H](C)N[C@@H](C)C4)cnc3n2)cc2cn(C)nc12 [Compound 390] | 5.00 to 6.00 | 5.00 to 6.00 | > 10 | 6.00 to 7.00 | < 100 | > 7.00 | > 7.00 | 5.00 to 6.00 | A (<100 nM) | –
CN(c1cnc2nc(-c3cc(F)c4nn(C)cc4c3)ccc2c1)[C@H]1CCNC1 [Compound 367, 7-(7-fluoro-2-methylindazol-5-yl)-N-methyl-N-[(3S)-pyrrolidin-3-yl]-1,8-naphthyridin-3-amine] | < 5.00 | < 5.00 | > 10 | 5.00 to 6.00 | 1000 to 10000 | 5.00 to 6.00 | 6.00 to 7.00 | < 5.00 | C (1000-9999 nM) | –
Cc1c(N2C[C@@H](C)N[C@@H](C)C2)cnc2nc(-c3cc4cn(C)nc4cc3O)ccc12 [Compound 487] | < 5.00 | < 5.00 | > 10 | 5.00 to 6.00 | 1000 to 10000 | 5.00 to 6.00 | > 7.00 | – | – | –
Cn1cc2cc(-c3cc(Cl)c4cc(N5CC[C@H](NC(C)(C)C)C5)cnc4n3)c(O)c(F)c2n1 [Compound 497] | > 7.00 | > 7.00 | 0.1 to 1 | > 7.00 | < 100 | > 7.00 | > 7.00 | – | – | –
Cn1cc2cc(-c3cnc4cc(C5CCNCC5)cc(F)c4n3)c(O)c(F)c2n1 [Compound 164, 7-fluoro-5-[8-fluoro-6-(piperidin-4-yl)quinoxalin-2-yl]-2-methylindazol-6-ol] | > 7.00 | > 7.00 | < 0.1 | > 7.00 | < 100 | > 7.00 | > 7.00 | > 7.00 | – | –
C[C@@H]1CN(c2cnc3nc(-c4cc5cn(C)nc5cc4O)ccc3c2Cl)C[C@H](C)N1 [Compound 492] | 5.00 to 6.00 | 5.00 to 6.00 | 1 to 10 | > 7.00 | < 100 | > 7.00 | > 7.00 | – | – | –
Cc1c(O)c(-c2ccc3nc(N4CCNC(C)C4)cnc3n2)cc2cn(C)nc12 (stereo not drawn) [Cmpd 196] | 6.00 to 7.00 | 6.00 to 7.00 | 1 to 10 | 6.00 to 7.00 | < 100 | 6.00 to 7.00 | > 7.00 | 5.00 to 6.00 | – | –
Cn1cc2cc(-c3cc(Cl)c4cc(N5CC[C@@H](NC(C)(C)C)C5)cnc4n3)c(O)c(F)c2n1 [Compound 498] | < 5.00 | < 5.00 | > 10 | 6.00 to 7.00 | 100 to 1000 | 6.00 to 7.00 | > 7.00 | – | – | –
Cn1cc2cc(-c3ccc4c(Cl)c(N5CCNC6(CC6)C5)cnc4n3)c(O)cc2n1 [Compound 500, 5-[5-chloro-6-(4,7-diazaspiro[2.5]octan-7-yl)-1,8-naphthyridin-2-yl]-2-methyl-indazol-6-ol] | 5.00 to 6.00 | 5.00 to 6.00 | 1 to 10 | 6.00 to 7.00 | 100 to 1000 | 6.00 to 7.00 | > 7.00 | – | – | –
CNC1CCN(c2cnc3nc(-c4cc5cn(C)nc5c(C)c4O)ccc3c2)C1 (stereo not drawn) [Compound 113, 2,7-dimethyl-5-{6-[3-(methylamino)pyrrolidin-1-yl]-1,8-naphthyridin-2-yl}indazol-6-ol] | 6.00 to 7.00 | 6.00 to 7.00 | 0.1 to 1 | > 7.00 | < 100 | > 7.00 | > 7.00 | 6.00 to 7.00 | – | –
CN1CCC[C@H]2CN(c3cnc4nc(-c5cc(F)c6nn(C)cc6c5)cc(Cl)c4c3)C[C@H]21 [Compound 376, 6-[(4aS,7aS)-1-methyl-hexahydro-2H-pyrrolo[3,4-b]pyridin-6-yl]-4-chloro-2-(7-fluoro-2-methylindazol-5-yl)-1,8-naphthyridine] | < 5.00 | < 5.00 | > 10 | 5.00 to 6.00 | 1000 to 10000 | 5.00 to 6.00 | – | < 5.00 | C (1000-9999 nM) | –
Cl.Cn1cc2cc(-c3cc(Cl)c4cc(N5CC[C@H](NCCF)C5)cnc4n3)c(O)cc2n1 [Compound 389] | – | 5.00 to 6.00 | 1 to 10 | 6.00 to 7.00 | < 100 | 6.00 to 7.00 | – | 5.00 to 6.00 | B (100-1000 nM) | 5.00 to 6.00
